Source: PubChem BioAssay AID248 (DTP/NCI, 2004)
“And” between values parts separate entries of the source, which are not always exact repeats. Equal entries are not always repeated. Toxic doses and inconclusive results are not listed.

System: L1210 leukemia ip in BDF1 mice, survival T/C
Experiment: NCI In Vivo Anticancer Drug Screen. Data for tumor model L1210 Leukemia (intraperitoneal) in B6D2F1 (BDF1) mice
Details: endpoint: mean survival time, higher = longer survival
Summary of the method: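 Ratio derived from survival: compound-dosed mice over vehicle-dosed mice, all bearing a transplantable tumor.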

[1] = dose: 100.0 mg/kg/injection, schedule: Q04DX002 (ip), vehicle: Klucel (hydroxypropylcellulose) (HPC)
[2] = dose: 200.0 mg/kg/injection, schedule: Q04DX002 (ip), vehicle: Klucel (hydroxypropylcellulose) (HPC)
[3] = dose: 400.0 mg/kg/injection, schedule: Q04DX002 (ip), vehicle: Klucel (hydroxypropylcellulose) (HPC)
[4] = dose: 50.0 mg/kg/injection, schedule: Q01DX009 (ip), vehicle: saline with Tween-80
[5] = dose: 100.0 mg/kg/injection, schedule: Q01DX009 (ip), vehicle: saline with Tween-80
[6] = dose: 100.0 mg/kg/injection, schedule: Q04DX003 (ip), vehicle: saline with Tween-80
[7] = dose: 200.0 mg/kg/injection, schedule: Q04DX003 (ip), vehicle: saline with Tween-80
[8] = dose: 400.0 mg/kg/injection, schedule: Q04DX003 (ip), vehicle: saline with Tween-80

SMILES: CC(C)COC(=O)c1ccccc1O
- T/C (dose: 100.0 mg/kg/injection, schedule: Q01DX009 (ip), vehicle: Klucel (hydroxypropylcellulose) (HPC)): 98 % of control
- T/C (dose: 100.0 mg/kg/injection, schedule: Q04DX003 (ip), vehicle: Klucel (hydroxypropylcellulose) (HPC)): 96 % of control
- T/C (dose: 200.0 mg/kg/injection, schedule: Q01DX009 (ip), vehicle: Klucel (hydroxypropylcellulose) (HPC)): 99 % of control
- T/C (dose: 200.0 mg/kg/injection, schedule: Q04DX003 (ip), vehicle: Klucel (hydroxypropylcellulose) (HPC)): 96 % of control
- T/C (dose: 400.0 mg/kg/injection, schedule: Q01DX009 (ip), vehicle: Klucel (hydroxypropylcellulose) (HPC)): 87 % of control
- T/C (dose: 400.0 mg/kg/injection, schedule: Q04DX003 (ip), vehicle: Klucel (hydroxypropylcellulose) (HPC)): 89 % of control

SMILES: CC(C)CCC(=O)OC1CCC2(C)C(=CCC3C2CCC2(C)C(O)CCC32)C1 (stereo not drawn)
- T/C (dose: 100.0 mg/kg/injection, schedule: Q01DX001 (ip), vehicle: saline with Tween-80): 92 % of control
- T/C (dose: 200.0 mg/kg/injection, schedule: Q01DX001 (ip), vehicle: saline with Tween-80): 93 % of control
- T/C (dose: 400.0 mg/kg/injection, schedule: Q01DX001 (ip), vehicle: saline with Tween-80): 101 % of control

SMILES: Nc1nccnc1C(=O)NOCc1ccccc1
- T/C (dose: 25.0 mg/kg/injection, schedule: Q04DX002 (ip), vehicle: Klucel (hydroxypropylcellulose) (HPC)): 90 % of control
- T/C (dose: 50.0 mg/kg/injection, schedule: Q04DX002 (ip), vehicle: Klucel (hydroxypropylcellulose) (HPC)): 90 % of control
- T/C [1]: 101 % of control and 111 % of control
- T/C [2]: 105 % of control
- T/C [3]: 96 % of control and 97 % of control

SMILES: CCCn1ncc(=O)[nH]c1=O
- T/C [4]: 96 % of control
- T/C [5]: 112 % of control
- T/C (dose: 200.0 mg/kg/injection, schedule: Q01DX009 (ip), vehicle: saline with Tween-80): 103 % of control

SMILES: CC(=O)N1Cc2c(N)nc(N)nc2C1C (stereo not drawn)
- T/C (dose: 100.0 mg/kg/injection, schedule: Q01DX001 (ip), vehicle: carboxymethylcellulose (CMC)): 101 % of control
- T/C (dose: 200.0 mg/kg/injection, schedule: Q01DX001 (ip), vehicle: carboxymethylcellulose (CMC)): 95 % of control
- T/C (dose: 400.0 mg/kg/injection, schedule: Q01DX001 (ip), vehicle: carboxymethylcellulose (CMC)): 104 % of control

SMILES: OC(Cc1ccccc1)(c1ccc(Cl)cc1)c1ccc(Cl)cc1
- T/C (dose: 100.0 mg/kg/injection, schedule: Q01DX001 (ip), vehicle: Klucel (hydroxypropylcellulose) (HPC)): 107 % of control
- T/C (dose: 200.0 mg/kg/injection, schedule: Q01DX001 (ip), vehicle: Klucel (hydroxypropylcellulose) (HPC)): 95 % of control
- T/C (dose: 400.0 mg/kg/injection, schedule: Q01DX001 (ip), vehicle: Klucel (hydroxypropylcellulose) (HPC)): 101 % of control

SMILES: Cc1ccc(S(=O)(=O)NCCN)cc1
- T/C (dose: 100.0 mg/kg/injection, schedule: Q04DX003 (ip), vehicle: saline): 97 % of control
- T/C (dose: 200.0 mg/kg/injection, schedule: Q04DX003 (ip), vehicle: saline): 97 % of control

SMILES: O=[N+]([O-])c1ccccc1Sc1ccc2c3c(cccc13)CN(CCCO)C2
- T/C [1]: 90 % of control
- T/C [2]: 108 % of control
- T/C [3]: 104 % of control

SMILES: C(=C\c1ccc(C2=NCCN2)cc1)/c1ccc(C2=NCCN2)cc1
- T/C (dose: 11.5 mg/kg/injection, schedule: Q01DX Z (ip), vehicle: carboxymethylcellulose (CMC)): 115 % of control
- T/C (dose: 23.0 mg/kg/injection, schedule: Q01DX Z (ip), vehicle: carboxymethylcellulose (CMC)): 119 % of control
- T/C (dose: 46.0 mg/kg/injection, schedule: Q01DX Z (ip), vehicle: carboxymethylcellulose (CMC)): 150 % of control
- T/C (dose: 62.0 mg/kg/injection, schedule: Q01DX Z (oral), vehicle: carboxymethylcellulose (CMC)): 103 % of control
- T/C (dose: 125.0 mg/kg/injection, schedule: Q01DX Z (oral), vehicle: carboxymethylcellulose (CMC)): 108 % of control
- T/C (dose: 250.0 mg/kg/injection, schedule: Q01DX Z (oral), vehicle: carboxymethylcellulose (CMC)): 104 % of control
- T/C (dose: 500.0 mg/kg/injection, schedule: Q01DX Z (oral), vehicle: carboxymethylcellulose (CMC)): 101 % of control

SMILES: O=C1C=C2CCCCC2C1 (stereo not drawn)
- T/C [4]: 100 % of control
- T/C [5]: 88 % of control

SMILES: C/C=C1\CN2CCc3c(n(C)c4ccccc34)C2CC1C(=O)OC (stereo not drawn)
- T/C [6]: 101 % of control
- T/C [7]: 88 % of control
- T/C [8]: 106 % of control

SMILES: O=C(Nc1ccccc1-c1ccc([N+](=O)[O-])cc1)c1cccc2ccccc12
- T/C [7]: 87 % of control
- T/C [8]: 90 % of control

SMILES: CC(=O)Nc1ccc2c(=O)cc[nH]c2n1
- T/C (dose: 50.0 mg/kg/injection, schedule: Q01DX001 (ip), vehicle: saline): 89 % of control
- T/C (dose: 100.0 mg/kg/injection, schedule: Q01DX001 (ip), vehicle: saline): 93 % of control
- T/C (dose: 200.0 mg/kg/injection, schedule: Q01DX001 (ip), vehicle: saline): 106 % of control
- T/C (dose: 400.0 mg/kg/injection, schedule: Q01DX001 (ip), vehicle: saline): 95 % of control

SMILES: Cc1cc([N+](=O)[O-])ccc1P(=O)(O)O
- T/C [6]: 100 % of control
- T/C [7]: 108 % of control
